Columns and labels:
[1] = tested on: HBV εRNA; test: εRNA/oligonucleotide hybridization inhibition assay with rRNA competitor; assay type: binding, Hepatitis B virus; details: for IC50: radiolabeled εRNA, 60-fold excess rRNA competitor; for Specificity: ratio RRE+rRNA IC50/εRNA+rRNA IC50, max = inactive in RRE assay
Excerpt: One assay used in determining the activity of the compounds of the present invention is disclosed in copending U.S. patent application Ser. No. 08/709,342, filed Sep. 6, 1996, the disclosure of which is hereby incorporated herein by reference in its entirety. The assay detects the interaction between target RNA molecule and a test ligand by measuring the ligand's ability to inhibit hybridization between the RNA and a specific complementary oligonucleotide. In one embodiment, the target RNA is radiolabelled and the oligonucleotide is labeled with biotin; in this case, the extent of hybridization is determined by measuring the amount of radiolabeled RNA detected with a streptavidin/biotin-based capture system.
Concentrations of test compounds of between about 0.1 μM and about 200 μM are assayed for inhibition using radiolabeled εRNA in the absence or presence of a large excess of an unlabeled non-specific RNA competitor (such as, e.g., ribosomal RNA, rRNA). Compounds that bind εRNA non-specifically are competitively displaced by the rRNA, resulting in reduced or no inhibition of hybridization between the radiolabeled εRNA and the biotinylated oligonucleotide. Conversely, the inhibitory activity of compounds that specifically bind εRNA is not affected by the presence of the competitor rRNA.
The high throughput assays were performed in 96-well plates containing eighty drugs (5 μl, 60 μg/ml in DMSO) distributed one per well in columns 2-6 and 8-12 of the 8×12 96-well array. The remaining 16 wells in columns 1 and 7 were filled with 5 μl DMSO to serve as the control reactions. 45 μl of reaction mixture containing buffer, salts and radiolabeled target RNA were delivered on each well of the compound-containing plates to yield a 50 μl mixture containing 50 mM Tris-HCl, pH 7.5, 200 mM KCl, 5 mM MgCl2, 5 mM DTT, 6 μg/ml test compound, and 25 nM [^32 P]-labeled εRNA. The reaction was started by addition of the biotinylated oligonucleotide, 262.104 A (5 μl) to a final concentration of 100 nM. The reaction was incubated at 25° C. for 60 minutes, and then 5 μl of 0.3 mg/ml SAAP (streptavidin alkaline phosphatase conjugate, Pierce, Rockford, Ill.) was added. The reaction was incubated for an additional 30 minutes at 25° C. and filtered through 96-well format HATF nitrocellulose filters (Millipore, Bedford, Mass.) using a multiscreen vacuum manifold (Millipore, Bedford, Mass.). Subsequently, 300 μl of wash buffer (50 mM Tris-HCl, pH 7.5, 200 mM KCl) was filtered through to wash the filters. The filters were dried and supplemented with 20 μl scintillation fluid (Super Mix, Wallac Oy, Turku, Finland). The amount of hybrids formed was determined by scintillation counting of the radiolabeled εRNA retained on the filters.
The inhibitory effect of a test compound (expressed as percentage of inhibition, % Inh.) was calculated using the following formula: […]
where Ro is the average retention of hybrids in the 16 identical control reactions in columns 1 and 7 and Rx is the hybrids retained in the presence of a test drug, x.
(§1) Biotinylated oligonucleotides 262.104 A (5′-biotin-TTAGGCACAGCTTGGAGGCTTGAACAGTG-3′) and 208.92 A (5′-biotin-CGTCATTGACGCTGCGCCCA-3′) were synthetically prepared (Oligos Etc., Willsonville, Oreg.). These oligonucleotides are complementary to regions of the εRNA and RRE RNA targets, respectively.
A plasmid containing the target sequence following the bacteriophage SP6 promoter was used as a template for the synthesis of radiolabeled εRNA using [α^32 P]-UTP and SP6 RNA polymerase as described by the suppliers, e.g., Ambion, Austin, Tex., and by methods well known to those of ordinary skill in the art.
Compounds that inhibited the primary screening assay described above were individually titrated in the same assay at concentrations between 0.1 μM and 200 μM in the absence and presence of 60-fold excess rRNA as a non-specific competitor. […]

[2] = tested on: HIV derived RRE RNA; test: heterologous hybridization inhibition assay with RRE RNA; assay type: binding; details: radiolabeled RRE RNA, rRNA competitor
Excerpt: Specificity is further tested in a third assay in which the radiolabeled RNA is the HIV derived RRE RNA and the biotinylated oligonucleotide is complementary to RRE. Compounds with high specific activity for εRNA are not expected to be inhibitory in the RRE RNA based assay. The specificity of the ligand for εRNA is expressed as the ratio between the IC50 value obtained with the specific target RNA and the IC50 value obtained with a heterologous target (RRE RNA), both in the presence of competitor RNA.
as §1
Compounds that inhibited the primary screening assay described above were individually titrated in the same assay at concentrations between 0.1 μM and 200 μM in the absence and presence of 60-fold excess rRNA as a non-specific competitor. A third titration was performed in a heterologous assay using radiolabeled RRE RNA as the target and the complementary biotinylated oligonucleotide 208.92 A. From these three assays, the IC50 values and specificity for each compound was calculated.
IC50 values using rRNA competitor (from Example 1) and radiolabeled RRE RNA are shown in Table 1 for the following ligands. […] Specificity is calculated as the ratio of RRE+rRNA IC50/εRNA+rRNA IC50.

Q: What does the source list for CCN(CC)c1nc(NN=CC=Cc2ccccc2)nc(Nc2ccc([N+](=O)[O-])cc2)n1 [Compound 132]?
A: IC50 [1]: 70.1 µM; Specificity [1]: 11.4; IC50 [2]: 800 µM

Q: Which IC50 [1] does the source give for O=[N+]([O-])c1ccc(Nc2nc(NN=Cc3ccc(-c4ccc([N+](=O)[O-])cc4)o3)nc(Nc3ccccc3)n2)cc1 [Compound 144] here?
A: 1000 µM

Q: And the Specificity [1]?
A: 0.1

Q: What about the IC50 [2] of the same compound?
A: 99.9 µM

Q: With O=[N+]([O-])c1ccc(Nc2nc(NN=Cc3cc(Br)ccc3O)nc(N3CCOCC3)n2)cc1 [Compound 107] as the compound, how does the IC50 [1] read?
A: 14.9 µM

Q: What about the Specificity [1] of the same compound?
A: 1.7

Q: And the IC50 [2]?
A: 25 µM

Q: How did the IC50 [1] turn out when O=[N+]([O-])c1ccc(Nc2nc(NN=Cc3cccc(F)c3)nc(N3CCCCCC3)n2)cc1 [Compound 78] was run?
A: 133 µM

Q: What about the Specificity [1] of the same compound?
A: max.

Q: And the “RRE + rRNA IC50 (μM)” value [2]?
A: inactive

Q: Cc1[nH]c2ccccc2c1C=NNc1nc(Nc2ccc([N+](=O)[O-])cc2)nc(N2CCOCC2)n1 [Compound 128] was tested. Which IC50 [1] did it give?
A: 22 µM

Q: And the Specificity [1]?
A: 4.5

Q: What about the IC50 [2] of the same compound?
A: 99.9 µM

Q: O=[N+]([O-])c1ccc(Nc2nc(NN=Cc3cccc(Br)c3)nc(N3CCCCCC3)n2)cc1 [Compound 45] was tested. Which IC50 [1] did it give?
A: 39.9 µM

Q: And the Specificity [1]?
A: max.

Q: What about the “RRE + rRNA IC50 (μM)” value [2] of the same compound?
A: inactive

Q: What does the source list for Cc1ccc(Nc2nc(NN=Cc3ccc(-c4cccc(C(=O)O)c4)o3)nc(Nc3ccc([N+](=O)[O-])cc3)n2)cc1C [Compound 76]?
A: IC50 [1]: 200 µM; Specificity [1]: max.; RRE + rRNA IC50 (μM) [2]: inactive

Q: How did the IC50 [1] turn out when CCCCN(CCCC)c1nc(NN=Cc2cccc(Br)c2)nc(Nc2ccc([N+](=O)[O-])cc2)n1 [Compound 83] was run?
A: 185 µM

Q: What about the Specificity [1] of the same compound?
A: max.

Q: What about the “RRE + rRNA IC50 (μM)” value [2] of the same compound?
A: inactive

Q: Cc1ccc(Nc2nc(NN=Cc3ccc(Br)cc3)nc(Nc3ccccc3)n2)c(C)c1 [Compound 59] was tested. Which IC50 [1] did it give?
A: 90.1 µM

Q: What about the Specificity [1] of the same compound?
A: max.

Q: And the “RRE + rRNA IC50 (μM)” value [2]?
A: inactive

Q: For C(=NNc1nc(Nc2ccccc2)nc(N2CCCC2)n1)c1c[nH]c2ccccc12 [Compound 89], which IC50 [1] is on record?
A: 12.5 µM

Q: And the Specificity [1]?
A: 6.0

Q: What about the IC50 [2] of the same compound?
A: 75.3 µM

Q: What does the source list for CCCCN(CCCC)c1nc(NN=C(C)c2ccc([N+](=O)[O-])cc2)nc(Nc2ccc([N+](=O)[O-])cc2)n1 [Compound 82]?
A: IC50 [1]: 150 µM; Specificity [1]: max.; RRE + rRNA IC50 (μM) [2]: inactive

Q: Which results are given for CCCCN(CCCC)c1nc(NN=Cc2c(C)[nH]c3ccccc23)nc(Nc2ccc([N+](=O)[O-])cc2)n1 [Compound 60]?
A: IC50 [1]: 100 µM; Specificity [1]: max.; RRE + rRNA IC50 (μM) [2]: inactive

Q: For COc1ccc(Nc2nc(NN=Cc3c[nH]c4ccccc34)nc(Nc3ccccc3)n2)cc1 [Compound 36], which IC50 [1] is on record?
A: 28.9 µM

Q: And the Specificity [1]?
A: 53.8

Q: What about the IC50 [2] of the same compound?
A: 1550 µM

Q: What does the source list for CCCCN(CCCC)c1nc(NN=Cc2cc3c(cc2Br)OCO3)nc(Nc2ccc([N+](=O)[O-])cc2)n1 [Compound 114]?
A: IC50 [1]: 40 µM; Specificity [1]: 5.5; IC50 [2]: 220 µM

Q: Which results are given for O=[N+]([O-])c1ccc(Nc2nc(NN=Cc3ccc(-c4ccc([N+](=O)[O-])cc4)o3)nc(N3CCCC3)n2)cc1 [Compound 47]?
A: IC50 [1]: 25 µM; Specificity [1]: max.; RRE + rRNA IC50 (μM) [2]: inactive

Q: For COc1ccc([N+](=O)[O-])cc1C=NNc1nc(NCc2ccccc2)nc(Nc2ccccc2)n1 [Compound 54], which IC50 [1] is on record?
A: 89.9 µM

Q: What about the Specificity [1] of the same compound?
A: max.

Q: And the “RRE + rRNA IC50 (μM)” value [2]?
A: inactive

Q: With CCCCN(CCCC)c1nc(NN=Cc2ccc(O)c(O)c2)nc(Nc2ccc([N+](=O)[O-])cc2)n1 [Compound 26] as the compound, how does the IC50 [1] read?
A: 15 µM

Q: What about the Specificity [1] of the same compound?
A: max.

Q: And the “RRE + rRNA IC50 (μM)” value [2]?
A: inactive

Q: CC(=NNc1nc(Nc2ccc([N+](=O)[O-])cc2)nc(N2CCCCC2)n1)c1ccccc1 [Compound 151] was tested. Which IC50 [1] did it give?
A: 200 µM

Q: And the Specificity [1]?
A: 3.5

Q: What about the IC50 [2] of the same compound?
A: 700 µM

Q: How did the IC50 [1] turn out when O=[N+]([O-])c1ccc(Nc2nc(NN=Cc3ccccc3)nc(N3CCOCC3)n2)cc1 [Compound 110] was run?
A: 20 µM

Q: And the Specificity [1]?
A: 4.0

Q: And the IC50 [2]?
A: 79.9 µM

Q: For CC(=NNc1nc(Nc2ccc([N+](=O)[O-])cc2)nc(N2CCOCC2)n1)c1ccc([N+](=O)[O-])cc1 [Compound 118], which IC50 [1] is on record?
A: 25 µM

Q: What about the Specificity [1] of the same compound?
A: 2.0

Q: What about the IC50 [2] of the same compound?
A: 50.1 µM

Q: Which results are given for COc1ccc([N+](=O)[O-])cc1C=NNc1nc(Nc2ccccc2)nc(N2CCCCC2)n1 [Compound 143]?
A: IC50 [1]: 446 µM; Specificity [1]: 0.5; IC50 [2]: 223 µM

Q: What does the source list for CCCCN(CCCC)c1nc(N/N=C/C(C)=C/c2ccccc2)nc(Nc2ccc([N+](=O)[O-])cc2)n1 [Compound 31]?
A: IC50 [1]: 30 µM; Specificity [1]: max.; RRE + rRNA IC50 (μM) [2]: inactive

Q: What does the source list for O=[N+]([O-])c1ccc(Nc2nc(N/N=C/c3ccccc3)nc(N3CCCCCC3)n2)cc1 [Compound 80]?
A: IC50 [1]: 200 µM; Specificity [1]: max.; RRE + rRNA IC50 (μM) [2]: inactive

Q: What does the source list for Fc1ccc(Nc2nc(Nc3cccc(C(F)(F)F)c3)nc(N3CCOCC3)n2)cc1 [Compound 71]?
A: IC50 [1]: 99.9 µM; Specificity [1]: max.; RRE + rRNA IC50 (μM) [2]: inactive

Q: How did the IC50 [1] turn out when Cc1ccc(Nc2nc(NN=Cc3ccc(O)cc3)nc(Nc3ccccc3)n2)c(C)c1 [Compound 81] was run?
A: 120 µM

Q: What about the Specificity [1] of the same compound?
A: max.

Q: What about the “RRE + rRNA IC50 (μM)” value [2] of the same compound?
A: inactive

Q: What does the source list for O=[N+]([O-])c1ccc(Nc2nc(NN=Cc3ccc(O)cc3)nc(N3CCCCC3)n2)cc1 [Compound 111]?
A: IC50 [1]: 23 µM; Specificity [1]: 20.0; IC50 [2]: 460 µM

Q: What does the source list for CCN(CC)c1nc(NN=Cc2ccncc2)nc(Nc2ccc([N+](=O)[O-])cc2)n1 [Compound 115]?
A: IC50 [1]: 75.1 µM; Specificity [1]: 1.7; IC50 [2]: 130 µM

Q: How did the IC50 [1] turn out when Cc1[nH]c2ccccc2c1C=NNc1nc(NCc2ccccc2)nc(N2CCOCC2)n1 [Compound 142] was run?
A: 226 µM

Q: What about the Specificity [1] of the same compound?
A: 5.0

Q: What about the IC50 [2] of the same compound?
A: 1130 µM

Q: What does the source list for O=[N+]([O-])c1ccc(Nc2nc(NN=Cc3cc(Br)ccc3O)nc(N3CCCCCC3)n2)cc1 [Compound 90]?
A: IC50 [1]: 15 µM; Specificity [1]: 3.0; IC50 [2]: 44.9 µM

Q: What does the source list for Cc1ccccc1Nc1nc(NN=Cc2ccc(-c3ccc([N+](=O)[O-])cc3)o2)nc(Nc2ccc([N+](=O)[O-])cc2)n1 [Compound 112]?
A: IC50 [1]: 25 µM; Specificity [1]: 30.0; IC50 [2]: 751 µM

Q: Which IC50 [1] does the source give for O=[N+]([O-])c1ccc(Nc2nc(NN=Cc3c[nH]c4ccccc34)nc(N3CCCCCC3)n2)cc1 [Compound 87] here?
A: 8.1 µM

Q: And the Specificity [1]?
A: 37.0

Q: What about the IC50 [2] of the same compound?
A: 300 µM

— US6335339B1, “Triazine antiviral compounds” (Scriptgen Pharmaceuticals, Inc., priority 1998, dated 2002)
